Measured values published in patent US20220202805A1, “REBAMIPIDE FOR USE IN PREVENTION AND/OR TREATMENT OF SYNUCLEINOPATHIES” (SQUARE POWER LTD., priority 2019, published 2022).

System: β-sitosterol β-D-glucoside (BSSG) model
Test: BSSG-induced Parkinson's disease model in rats, 10-month study
Assay type: in vivo, Male Sprague Dawley rats
From the text: Increased intestinal permeability may lead to a leakage of various substances (such as bacterial toxins and xenobiotics), that are normally unable to cross the gut wall, from the intestine into the body proper, which may trigger synthesis of misfolded alpha-synuclein in the enteric wall and its transfer to the brain via n. vagus. The increased intestinal permeability is a typical consequence of epithelial dysfunction caused by all sorts of enteric inflammation. Therefore, induction of the inflammatory process may be used for setting of disease models. […] When fed to rodents, cycad flour triggers a progressive development of neurological deficits, with behavioral and cellular features that closely approximate those observed in patients. Besides neurotoxic properties, BSSG directly interacts with epithelium. It loosens tight junctions in mucosa via increase of intracellular calcium levels and thus increases permeability of epithelium.
Male Sprague Dawley rats were used in a study performed during 10 months. The animals were put on the baseline diet consisting of BSSG, 3 mg/day, 5 doses weekly p.o. in Month 1 to Month 4. […]
The observed parameters: • 1. Quantitative analysis of misfolded α-synuclein in substantia nigra lysate • 2. Quantitative analysis of misfolded α-synuclein in intestinal lysate • 3. Quantitative analysis of misfolded α-synuclein in olfactory bulb lysate • 4. […]
Final analysis at Month 10 to investigate neurodegenerative disease progression: after in vivo tests (locomotion, coordination, and cognitive) a subgroup of animals in each experimental group is sacrificed. […] In addition inflammatory markers such as TNF-α, IL-6, etc. in brain section samples and serum are measured.
In order to evaluate the overall efficacy of rebamipide in Parkinson's disease a Cumulative PD Score was calculated. […]

O=C(NC(Cc1cc(=O)[nH]c2ccccc12)C(=O)O)c1ccc(Cl)cc1 (stereo not drawn) [Rebamipide, 2-[(4-chlorobenzoyl)amino]-3-(2-oxo-1H-quinolin-4-yl)propanoic acid] was tested, and the “alpha-synuclein aggregates in comparison with the placebo group” value (rebamipide 30 or 200 mg/kg/day p.o. in feed, BSSG 3 mg/day, histological analysis, preliminary results) was “reduced”, the “parameters tested including functional tests” value (rebamipide 30 or 200 mg/kg/day p.o. in feed, BSSG 3 mg/day, vs placebo, preliminary results) was “significant improvement” and the “Cumulative PD score, better as compared to the placebo group” value (weighted score of α-synuclein, functional, permeability, inflammatory, olfactory, retinal tests and mortality, rebamipide treated group vs placebo) was “more than 20%”.
